From patent US20090137493A1, “Inhibition of tumor metastases using protein kinase C (PKC) inhibitors” (priority 2007, published 2009)
Bridges are numbered along the chain shown (N, C = ends). Where no end group is shown, it is not given here.

Columns and labels:
[1] = molecular target: T1, βIIPKC (Mus musculus, UniProt P68404); test: Translocation of βIIPKC in tumor cells (immunoblot of cytosol and particulate fractions); type: in vivo; conditions: FIG. 5B
T1 construct: endogenous in cells; host or cells: 4T1 murine mammary tumour cells grown as tumours in Balb/c mice
T1 sequence (P68404 1-673 isoform P68404-2): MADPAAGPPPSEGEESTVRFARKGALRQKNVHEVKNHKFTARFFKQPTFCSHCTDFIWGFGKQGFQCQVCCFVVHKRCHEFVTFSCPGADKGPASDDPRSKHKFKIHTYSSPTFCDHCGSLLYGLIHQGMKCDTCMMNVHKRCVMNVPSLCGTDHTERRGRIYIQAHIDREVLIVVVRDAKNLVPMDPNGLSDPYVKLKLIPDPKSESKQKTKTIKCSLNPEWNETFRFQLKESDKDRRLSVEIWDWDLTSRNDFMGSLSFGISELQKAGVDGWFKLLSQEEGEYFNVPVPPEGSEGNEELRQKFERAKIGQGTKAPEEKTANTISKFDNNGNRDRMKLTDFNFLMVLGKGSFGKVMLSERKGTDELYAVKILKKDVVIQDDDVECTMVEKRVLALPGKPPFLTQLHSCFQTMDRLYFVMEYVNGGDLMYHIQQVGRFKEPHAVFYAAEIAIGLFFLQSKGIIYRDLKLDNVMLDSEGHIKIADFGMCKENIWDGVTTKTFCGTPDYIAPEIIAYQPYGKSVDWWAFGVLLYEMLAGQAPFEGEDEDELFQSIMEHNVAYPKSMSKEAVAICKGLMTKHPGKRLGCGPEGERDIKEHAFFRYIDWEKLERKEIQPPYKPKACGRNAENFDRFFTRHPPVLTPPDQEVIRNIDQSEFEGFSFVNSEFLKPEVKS
Method: FIGS. 5A-5B are bar graphs showing the percentage of translocation of αPKC (FIG. 5A) and βIIPKC (FIG. 5B) […] in tumor cells treated with αV5-3-TAT peptide.
To further characterize inhibition of metastasis using the α and βIIPKC inhibitors, the percentage of translocation of αPKC (FIG. 5A) and βIIPKC (FIG. 5B), […] was measured.

[2] = tested on: 4T1 tumor cells; test: Growth of primary tumors in vivo (number of tumor cells at primary site of injection); parameters: species or system mice; conditions: animals injected with 4T1 tumor cells, FIG. 6A, versus saline
Method: FIG. 6A is a bar graph showing the affect of saline, the αV5-3-TAT conjugate peptide (αPKC), or the βIIV5-3-TAT conjugate peptide (βPKC) on the growth rate of primary tumors in vivo.
To determine if the effects observed with the α and βIIPKC peptide inhibitors was due to a decrease in metastasis as opposed to a decrease in primary tumor growth, animals injected with 4T1 tumor cells were treated with saline, the αV5-3-TAT conjugate peptide (αPKC), or the βIIV5-3-TAT conjugate peptide (βPKC) and the number of tumors cells at the primary site of injection were determined.

[3] = tested on: MDA-MB-231 breast cancer cells; test: Cell migration/invasion assay through a HUVEC monolayer, MDA-MB-231; type: cell-based, human; conditions: peptide 10 μM, re-applied every 2 hours for 10 hours
From the text: (§1) FIGS. 14A and 14B are bar graphs showing the efficacy of TAT carrier peptide (TAT), αV5-3-TAT peptide (Alpha), βIIV5-3 peptide (Beta-2), and εV1-2 (Epsilon) in inhibiting the invasion of human MDA-MB-231 and MCF-7 breast cancer cells through a HUVEC monolayer. FIGS. 14C and 14D are bar graphs showing the efficacy of TAT carrier peptide (TAT) or αV5-3-TAT peptide in inhibiting the invasion of 4T1 (FIG. 11C) and MDA-MB-231 (FIG. 11D) cells.
as §1, with “14B show the results of a related experiment measuring” for “14B are bar graphs showing”, “εV1-2 peptide” for “εV1-2”, “14D show the results of a similar experiment” for “14D are bar graphs”
Cell Migration/invasion assay: Primary human endothelial cells (HUVEC's) were plated on top of a matrigel plug in trans-well plates. Once the cells had reached confluence (as determined by examination of a control well), 1×10^6 human breast cancer cells (MCF-7 or MDA-MB-231) expressing luciferase were added above the HUVEC cell layer. Where applicable, peptides were added to a final concentration of 10 μM and re-applied every 2 hours for 10 hours followed by further incubation. After 24-48 hours-incubation the HUVEC cell layer (and all other cells above the matrigel) were removed by scraping of the cell layer into the media and aspiration (repeated 3 times). The relative numbers of cancer cells that had crossed the HUVEC cell layer and entered the matrigel was then determined by bioluminescence detection of luciferase action following addition of luciferin substrate.

[4] = tested on: MDA-MB-231 breast cancer cells; test: Wound healing (migration) assay, MDA-MB-231; type: cell-based, human; conditions: peptide 1 uM, re-applied every 2 h for 8 h
Method: FIGS. 12A-12D are micrographs showing the efficacy of TAT carrier peptide (TAT; FIG. 12A), αV5-3-TAT peptide (Alpha; FIG. 12B), βIIV5-3 peptide (Beta2; FIG. 12C), and εV1-2 (Epsilon; FIG. 12D) on human MDA-MB-231 breast cancer cell migration.
(§2) To investigate the role of PKC inhibitors in reducing the migration of tumor cells, in vitro migration assays were performed using MDA-MB-231 breast cancer cells (FIGS. 12A-12D), MCF-7 breast cancer cell (FIGS. 13A-13D), JC cells (FIGS. 15A-15D), and 4T1 cells (FIGS. 16A-16D), in the presence of TAT carrier peptide (TAT), αV5-3-TAT peptide (Alpha), βIIV5-3 peptide (Beta2), or εV1-2 peptide (Epsilon).
(§3) Wound healing assay: Human or mouse breast cancer cell lines were grown in 6-well plates until about 90% confluent. Cells were then grown in serum free media overnight, before media was changed to media +1% FBS and peptide PKC inhibitors added (1 uM), at the same time a pipette tip was drawn across the cell layer to create a scrape ‘wound’. PKC inhibitors were re-applied every 2 h for a total of 8 h, before cells were left for a further 12 h and then the scrape was examined under phase contrast microscopy.

[5] = tested on: MCF-7 breast cancer cells; test: Cell migration/invasion assay through a HUVEC monolayer, MCF-7; type: cell-based, human; conditions: peptide 10 μM, re-applied every 2 hours for 10 hours
From the text: as §1
FIGS. 14A and 14B show the results of a related experiment measuring the efficacy of TAT carrier peptide (TAT), αV5-3-TAT peptide (Alpha), βIIV5-3 peptide (Beta-2), and εV1-2 peptide (Epsilon) in inhibiting the invasion of human MDA-MB-231 and MCF-7 breast cancer cells through a HUVEC monolayer. […]
Cell Migration/invasion assay: Primary human endothelial cells (HUVEC's) were plated on top of a matrigel plug in trans-well plates. Once the cells had reached confluence (as determined by examination of a control well), 1×10^6 human breast cancer cells (MCF-7 or MDA-MB-231) expressing luciferase were added above the HUVEC cell layer. […] The relative numbers of cancer cells that had crossed the HUVEC cell layer and entered the matrigel was then determined by bioluminescence detection of luciferase action following addition of luciferin substrate.

[6] = tested on: 4T1 murine mammary cancer cells; test: Lung metastasis of luciferase-tagged 4T1 tumors in mice, imaging (relative light units); type: in vivo; conditions: 4T1-luciferase tumor-bearing mice, osmotic pump, about 35 mg/kg/day, four weeks
Method: To determine whether specific PKC inhibitors could reduce the amount of PKC translocation/activation in vivo and thereby reduce tumor cell metastasis, animals were administered an αPKC peptide inhibitor, or appropriate control, via an implanted osmotic pump, following the injection of luciferase-tagged tumor cells. […] The data are summarized in the bar graph shown in FIG. 4, along with similar data relating to the use of a βIIV5-3-TAT conjugate peptide (βPKC; SEQ ID NO: 27). The extent of lung metastasis is expressed as relative light units.
Balb/c female mice (6 weeks old) were injected semi-orthotopically with 4T1 murine mammary cancer cells tagged with luciferase ([…] cells/100 μL). One week later, an osmotic minipump was implanted subcutaneously in each animal, for delivery of saline (control), TAT peptide (control, YGRKKRRQRRR, SEQ ID NO: 25), the peptide inhibitor αV5-3 (QLVIAN, SEQ ID NO: 6) attached via an N-terminal disulfide bond to TAT peptide (YGRKKRRQRRR-CC-QLVIAN, SEQ ID NO: 26).
In other experiments, the peptide inhibitor βIIV5-3 (QEVIAN, SEQ ID NO: 13) or εV1-2 (EAVSLKPT, SEQ ID NO: 20) is attached via an N-terminal disulfide bond to the TAT peptide (SEQ ID NOs: 27 and 28, respectively). The TAT control, αV5-3-TAT, βIIV5-3-TAT, or εV1-2-TAT conjugate peptides are administered at about 35 mg/kg/day for two and four weeks.
After two weeks of treatment with αV5-3-TAT, some animals were selected form imaging (IVIS® 29, Xenogen Corporation, Alameda, Calif.) and analysis, with the remaining animals imaged after four weeks of treatment.
FIG. 4 is a bar graph showing the extent of lung metastasis, expressed as relative light units (based on imaging as exemplified in FIG. 3), in tumor-bearing mice treated for four weeks with saline, the αV5-3-TAT conjugate peptide (αPKC), or the βIIV5-3-TAT conjugate peptide (βPKC). The extent of lung metastasis, quantified approximately by the relative light units, for mice treated with saline, the αPKC inhibitor, and the βIIV5-3 PKC inhibitor peptide is shown. The extent of lung metastases is reduced in the animals treated with the αPKC inhibitor.

[7] = tested on: JC cells; test: Wound healing (migration) assay, JC; type: cell-based, mouse; conditions: peptide 1 uM, re-applied every 2 h for 8 h
Method: FIGS. 15A-15D are micrographs showing the efficacy of TAT carrier peptide (TAT; FIG. 15A), αV5-3-TAT peptide (Alpha; FIG. 15B), βIIV5-3 peptide (Beta2; FIG. 15C), and εV1-2 (Epsilon; FIG. 15D) on JC cell migration.
as §2, §3

[8] = tested on: MCF-7 breast cancer cells; test: Wound healing (migration) assay, MCF-7; type: cell-based, human; conditions: peptide 1 uM, re-applied every 2 h for 8 h
Method: FIGS. 13A-13D are micrographs showing the efficacy of TAT carrier peptide (TAT; FIG. 13A), αV5-3-TAT peptide (Alpha; FIG. 13B), βIIV5-3 peptide (Beta2; FIG. 13C), and εV1-2 (epsilon; FIG. 13D) on human MCF-7 breast cancer cell migration.
as §2, §3

**Q.** With “YGRKKRRQRRR-CC-CGRNAE (YGRKKRRQRRRCCCGRNAE; disulfide (positions not given here); also: TAT conjugated via disulfide, Cys pair not given here) [βIIV5-3-TAT]” as the substance, how does the “reduction of βIIPKC translocation” value [1] read?
**A.** did not significantly reduce

**Q.** What about the “reduction in the number of cells at the primary tumor site” value [2] of the same substance?
**A.** no reduction

**Q.** And the “invasion of MDA-MB-231 cells through a HUVEC monolayer” value [3]?
**A.** reduced migration and invasion

**Q.** And the “migration of MDA-MB-231 breast cancer cells” value ([4]; listed as βIIPKC inhibitor)?
**A.** reduced migration and invasion

**Q.** And the “migration of MDA-MB-231 breast cancer cells” value ([4]; listed as βIIV5-3 peptide)?
**A.** reduced

**Q.** What about the “invasion of MCF-7 cells through a HUVEC monolayer” value [5] of the same substance?
**A.** reduced migration and invasion

**Q.** What about the “effect on lung metastasis compared to control animals (in words)” value [6] of the same substance?
**A.** less pronounced effect

**Q.** What about the “effect on lung metastasis compared to control animals (in words)” value ([6]; listed as βPKC inhibitor) of the same substance?
**A.** about half

**Q.** And the “migration of JC cells” value [7]?
**A.** reduced

**Q.** And the “migration of MCF-7 breast cancer cells” value ([8]; listed as βIIPKC inhibitor)?
**A.** reduced migration and invasion

**Q.** What about the “migration of MCF-7 breast cancer cells” value ([8]; listed as βIIV5-3 peptide) of the same substance?
**A.** reduced

**Q.** With “YGRKKRRQRRR-CC-EAVSLKPT (YGRKKRRQRRRCCEAVSLKPT; disulfide 12-13 (inferred)) [εV1-2-TAT]” as the substance, how does the “invasion of MDA-MB-231 cells through a HUVEC monolayer” value [3] read?
**A.** reduce invasion

**Q.** What about the “invasion of MCF-7 cells through a HUVEC monolayer” value [5] of the same substance?
**A.** reduce invasion
